Reference: patent US4668679A, “Aminoethyl-pyridine and pyrazine derivatives” (Riom Laboratories C.E.R.M., priority 1983, dated 1987)

Tested on: Bronchospasm
Test: antibronchoconstrictory activity, technique of Konzett and Rossler (histamine bronchospasm, i.v.)
Format: in vivo, tricoloured guinea pigs
Details: guinea pig; for Duration: duration of action
Procedure: The antibronchoconstrictory activity was investigated on tricoloured guinea pigs according to the technique of Konzett and Rossler. The animals are anaesthetised with ethylcarbamate and, after tracheotomy, are artifically respirated at constant volume; whereby the intratracheal pressure is recorded continuously. Histamine (5 μg.kg^-1, i.v.) is administered before and at various time-intervals after treatment with the substance to be studied. The activity of the product administered intravenously is evaluated by comparing the amplitudes of the bronchospasms before and after treatment and calculating the percentage variation and the duration of action.

[1] = Cavia porcellus, iv, dose 0.05 mg, histamine 5 μg/kg i.v.
[2] = dose 0.05 mg, histamine 5 μg/kg i.v.
[3] = Cavia porcellus, iv, dose 0.25 mg, histamine 5 μg/kg i.v.
[4] = dose 0.25 mg, histamine 5 μg/kg i.v.
[5] = Cavia porcellus, iv, dose 0.1 mg, histamine 5 μg/kg i.v.
[6] = dose 0.1 mg, histamine 5 μg/kg i.v.
[7] = Cavia porcellus, iv, dose 5 mg, histamine 5 μg/kg i.v.
[8] = dose 5 mg, histamine 5 μg/kg i.v.

With `COc1ccc(N2CCN(CC(OC)c3ccc(C)nc3)CC2)c(OC)c1` (stereo not drawn) [Compound 15] the inhibition in vivo at 0.05 mg [1] was 80%, the Duration [2] was 60 min and the “antibronchoconstrictory activity (intensity and duration of action), in words” value (from here on “antibronchoconstrictory activity”) (histamine bronchospasm) was “excellent activity”.
Work on `COC(CN1CCN(c2ccccc2)CC1)c1cnc(C)cn1` (stereo not drawn) [Compound 9] yielded an inhibition in vivo at 0.25 mg [3] of 98% and a Duration [4] of 30 min.
`COC(CN1CCN(c2ccccc2C)CC1)c1ccc(C)nc1` (stereo not drawn) [Compound 16] was tested, and the inhibition in vivo at 0.1 mg [5] was 79%, the Duration [6] was 45 min and the “antibronchoconstrictory activity” value (histamine bronchospasm) was “excellent activity”.
`COC(CN1CCN(c2ccccc2)CC1)c1nccnc1C.O=C(O)/C=C/C(=O)O` (stereo not drawn) [Compound 14, 1-[2-Methoxy-2-(3-methyl-2-pyrazinyl)-ethyl]-4-phenyl-piperazine fumarate salt] was tested, and the inhibition in vivo at 5 mg [7] was 82% and the Duration [8] was 45 min.
`COC(CN1CCN(c2ccccc2)CC1)c1ccc(C)nc1` (stereo not drawn) [Compound 6, 1-[2-Methoxy-2-(6-methyl-3-pyridyl)-ethyl]-4-phenyl-piperazine] showed an inhibition in vivo at 0.025 mg (Cavia porcellus, iv, dose 0.025 mg, histamine 5 μg/kg i.v.) of 90%, an ED50 (Cavia porcellus, iv, histamine bronchospasm) of 1.9 µg/kg and a Duration (dose 0.025 mg, histamine 5 μg/kg i.v.) of over 120 min. For the same compound, the “antibronchoconstrictory activity” value (histamine bronchospasm) was “excellent activity”.
With `CCOC(CN1CCN(c2ccccc2OC)CC1)c1ccc(C)nc1` (stereo not drawn) [Compound 11] the inhibition in vivo at 0.25 mg [3] was 100% and the Duration [4] was over 60 min.
`CCOC(CN1CCN(c2ccccc2)CC1)c1ccc(C)nc1` (stereo not drawn) [Compound 10] gave an inhibition in vivo at 1 mg (Cavia porcellus, iv, dose 1 mg, histamine 5 μg/kg i.v.) of 100% and a Duration (dose 1 mg, histamine 5 μg/kg i.v.) of over 60 min.
In the case of `COC(CN1CCN(c2ccc(F)cc2)CC1)c1ccc(C)nc1` (stereo not drawn) [Compound 2], the inhibition in vivo at 0.05 mg [1] is reported as 85%, the Duration [2] is reported as over 120 min and the “antibronchoconstrictory activity” value (histamine bronchospasm) is reported as “excellent activity”.
`CCOc1ccccc1N1CCN(CC(OC)c2ccc(C)nc2)CC1` (stereo not drawn) [Compound 8] was tested, and the inhibition in vivo at 0.1 mg [5] was 95%, the Duration [6] was over 15 min and the “antibronchoconstrictory activity” value (histamine bronchospasm) was “excellent activity”.
For `COC(CN1CCCC1)c1ccc(C)nc1` (stereo not drawn) [Compound 1], the inhibition in vivo at 5 mg [7] was 56.5% and the Duration [8] was over 60 min.
Compound `COC(CN1CCOCC1)c1ccc(C)nc1` (stereo not drawn) [Compound 3] has an inhibition in vivo at 5 mg [7] of 50% and a Duration [8] of over 15 min.
Work on `COC(CN1CCN(c2ccc(F)cc2)CC1)c1cnc(C)cn1` (stereo not drawn) [Compound 12] yielded an inhibition in vivo at 0.5 mg (Cavia porcellus, iv, dose 0.5 mg, histamine 5 μg/kg i.v.) of 91% and a Duration (dose 0.5 mg, histamine 5 μg/kg i.v.) of over 60 min.
For `COc1ccccc1N1CCN(CC(OC)c2ccc(C)nc2)CC1` (stereo not drawn) [Compound 7, 1-[2-Methoxy-2-(6-methyl-3-pyridyl)-ethyl]-4-(2-methoxy-phenyl)-piperazine], the inhibition in vivo at 0.25 mg [3] was 97%, the Duration [4] was over 60 min and the “antibronchoconstrictory activity” value (histamine bronchospasm) was “excellent activity”.
